In patent US6632921B1, “Seryl-lysyl-based peptide and peptidomimetic inhibitors of N-myristoyl transferase as anti-infective agents” (G. D Searle & Co, priority 1995, dated 2003):
Where two headings read alike, the source gives them in different places.

Tests used:
[1] = system: Candida albicans, strain B311; assay: Antifungal susceptibility testing, microdilution broth, pH 5.4/30° C./YNB; assay type: cell-based; conditions: B311, 24 h
Method: Antifungal Screens were set up initially against Candida albicans, strain B311, and Cryotococcus neoformans, strain L210425. Both pathogens, (originally from the stock culture collection, Medical mycology research center, Washington university-Barnes hospital), were obtained from Dr.Kobayashi, Prof.of infectious diseases, Washington University, St.Louis, Mo.
All cultures are maintained at 30° C. on Sabouraud's dextrose agar slants and subcultured at monthly intervals to fresh medium. All inocula for susceptibility testing are prepared in yeast nitogen base(YNB, Difco) broth.
A loopful of growth from Sabouraud dextrose agar slant is inoculated into 4 ml of YNB broth media and incubated at 30° C. overnight (18-24 hrs) with constant agitation (Gyratory Shaker, New Brunswick Scientific). Prior to setting up susceptibility testing, the organisms are counted in a hemocytometer, and diluted as needed into assay media.
1) (Assay at DH 5.4/30° C. Incubation/YNB Media).
Antifungal assays were carried out initially by a modification of the method published by Jones, et. al; (1), and communicated to Searle by Dr. Kobayashi, Washington University. [R. N. Jones et al, Manual of Clinical Microbiology, 4th ed., (1985)]
The antifungal susceptibility testing consists of a microdilution broth procedure performed in 96 well microtiter plates (Costar, cat#3799). Briefly, test compounds from a 20 mM stock solution in DMSO are diluted into sterile, deionized water (final DMSO concentration not exceeding 1%), to yield 2× the desired concentration (100 uM, 10 uM and 1 uM for an initial screen, or a selected concentration range in serial 2 fold dilutions for EC50 determination). One hundred microliters (100 ul) of each concentration is dispensed into triplicate wells of a 96 well microtiter plate. Appropriate dilutions of a suspension of C.albicans (1×10^6 cells/ml) in 2× YNB is distributed into each of the wells, including growth control wells containing no test compound as well as control wells with 0.5% DMSO. Amphotericin B at 0.05, 1 and 5 ug/ml is included in each assay plate as a positive control. The plates are incubated at 30° C. and cell growth is scored by reading the absorbance at 590 nm on an Elisa plate reader(Dynatech, MR.5000).

[2] = target: T1, Candida albicans NMT (Candida albicans, UniProt P30418); assay: NMT enzyme inhibition assay (radiochemical HPLC end-point), Candida NMT; assay type: biochemical; conditions: for IC50: read-out: IC50 caNMT
T1 construct: made in house; host or cells: E. coli
T1 sequence (P30418 1-451): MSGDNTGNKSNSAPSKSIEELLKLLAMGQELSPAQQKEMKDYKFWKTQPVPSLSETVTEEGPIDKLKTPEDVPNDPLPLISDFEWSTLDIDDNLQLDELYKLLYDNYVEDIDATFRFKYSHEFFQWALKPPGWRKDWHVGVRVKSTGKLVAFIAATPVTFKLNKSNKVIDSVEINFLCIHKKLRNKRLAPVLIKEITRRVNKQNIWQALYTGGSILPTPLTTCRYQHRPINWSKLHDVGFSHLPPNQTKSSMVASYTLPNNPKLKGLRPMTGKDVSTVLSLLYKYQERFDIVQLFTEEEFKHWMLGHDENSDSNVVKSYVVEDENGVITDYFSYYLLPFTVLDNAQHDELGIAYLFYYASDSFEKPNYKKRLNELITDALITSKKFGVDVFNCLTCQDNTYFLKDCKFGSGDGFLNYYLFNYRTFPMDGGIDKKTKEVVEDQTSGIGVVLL
Method: Recombinant Candida albicans and human NMTs were expressed and purified from E. coli using previously described protocols. [D. A. Towler et al, Proc. Natl. Acad. Sci. USA, 84, 2707-2712 (1987); R. C. Weigand et al, J. Biol. Chem., 267, 8591-8598 (1992); R. J. Duronio et al, Proc. Natl. Acad. Sci. USA, 89, 4129-4133 (1992)] The ability of compounds to inhibit Candida NMT enzymatic activity was assessed using a radiochemical HPLC end-point assay as described previously for Saccharomyces cerevisiae and human NMTs. [D. Towler et al, Proc. Natl. Acad. Sci. USA, 83, 2812-2816 (1986); W. J. Rocque et al, J. Biol. Chem., 268, 9964-9971 (1991)] The donor substrate [^3H]myristoyl-coenzyme A was enzymatically synthesized from [^3H]myristic acid (50 Ci/mmol, Amersham, Arlington Heights, Ill.) and coenzyme A (Fluka Chemical Corp., Ronkonkoma, N.Y.), and purified as described previously. [W. J. Rocque et al, J. Biol. Chem., 268, 9964-9971 (1991)] The peptide acceptor substrate GNAASARR-NH2 was prepared by solid-phase peptide synthesis using the t-Boc amino acid methodology, followed by HF treatment and reverse-phase HPLC purification. Inhibitor stock solutions were prepared at 22 mM in DMSO; the final concentration of DMSO in each assay was 0.5% (v/v). Inhibition assays were carried out by combining variable amounts of inhibitor or buffer with […] of [^3H]myristoyl-coenzyme A (1 μCi, 9.09 Ci/mmol) and 2.2 nmoles of GNAASARR-NH2 in a total volume of 60 μL of 0.2 M N-[2-hydroxy-ethyl]piperazine-N′-[2-ethanesulfonic acid], pH 7.4, 2 mM DL-dithiothreitol, 0.2 mM ethylene glycol-bis-(β-aminoethyl ether) N,N,N′,N′-tetraacetic acid, and initiating the reaction by the addition of 50 μL of a Candida NMT solution (7-12 ng/50 μL). Assays with human NMT were identical except that they used 60-75 ng/50 μL of enzyme solution and 0.22 nmoles of GNAASARR-NH2. The reaction was quenched after 10 minutes at 24° C. by the addition of ice-cold MeOH, and the reaction products were separated and measured using C4 reverse-phase HPLC (Vydac 214TP10415; Separations Group, Hesperia, Calif.) and in-line scintillation counting using a Radiomatic A250 (Packard Instruments, Downers Grove, Ill.) and Ecolite(+) (ICN Biomedical, Costa Mesa, Calif.) as the scintillant. Selectivity was determined by calculating the ratio of the IC50 against human NMT to the IC50 against C. albicans NMT.

[3] = pH 5.4, read-out: ACTIVITY (EC50) C.alb (B311)

Row | SMILES | EC50 [1, 3] [µM] | EC50 ([1]; read-out: caEC50 24 hours) [µM] | IC50 ([2]; Comparator Compound A table) [µM] | inhibition of purified C. albicans Nmt in vitro ([2]; result in words) | EC50 ([1]; pH 5.4, read-out: caEC50 24 hours) [µM] | IC50 ([2]; Table V) [µM] | Selectivity ([2]; ratio of IC50 against human NMT to IC50 against C. albicans NMT)
1 | Cc1nccn1CCCCc1ccc(CC(=O)N[C@H](CO)C(=O)N[C@H](CCCCN)C(=O)N[C@H](CC2CCCCC2)C(=O)O)cc1 [Comparator Compound A, D-Alanine, 3-cyclohexyl-N-[N^2-[N-[[4-[4-(2-methyl-1H-imidazol-1-yl)butyl]phenyl]acetyl]-D-seryl]-D-lysyl]-, bis-trifluoroacetate] | > 400 | > 400 | > 1000 | not an inhibitor | – | – | –
2 | Cc1nccn1CCCCc1ccc(CC(=O)N[C@@H](CO)C(=O)N[C@@H](CCCCN)C(=O)N[C@@H](CC2CCCCC2)C(=O)O)cc1 [Example 2, L-Alanine, 3-cyclohexyl-N-[N^2-[N-[[4-[4-(2-Methyl-1H-imidazol-1-yl)butyl]phenyl]acetyl]-L-seryl]-L-lysyl]-, bis-trifluoroacetate] | 35 | – | – | – | 35 | 1.4 | 560
